Here are results for four molecules from ChEMBL document CHEMBL1201862, “PubChem BioAssay data set” (2004).

Assay [1] in a line: NIH3T3 cell viability loss – ATP luminescence, mouse fibroblasts, counter-screen, dose response (AID 2010).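 Note: cells exposed to compound for about 90 hours before reading.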 Type of assay: functional, cell-based.
Assay [2] concerns Vero. Briefly: viability of Vero cells under compound – cytotoxicity control for flavivirus capping enzyme inhibitors (AID 588742). In kind it is functional. To be noted: Chlorocebus sabaeus.
Assay [3] is described as follows: viability of uninfected HEp-2 cells – cell-based, HTS, cytotoxicity control for RSV inhibitor project, dose response (AID 2410). In kind it is functional. To be noted: human respiratory syncytial virus.
Assay [4] in a line: Trypanosoma cruzi growth suppression in host cells – NIH3T3 host cells, beta-gal luminescence, confirmation (AID 2044).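 Note: intracellular parasites grown in NIH/3T3 mouse fibroblasts as host cells; luminescent beta-galactosidase reporter signal from transgenic T. cruzi replicating inside host cells; inhibitors lower the luminescence signal.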 In kind it is functional, cell-based.
Assay [5] deals with T1, Caspase-6 (Homo sapiens, UniProt P55212).
T1 sequence (P55212 whole entry): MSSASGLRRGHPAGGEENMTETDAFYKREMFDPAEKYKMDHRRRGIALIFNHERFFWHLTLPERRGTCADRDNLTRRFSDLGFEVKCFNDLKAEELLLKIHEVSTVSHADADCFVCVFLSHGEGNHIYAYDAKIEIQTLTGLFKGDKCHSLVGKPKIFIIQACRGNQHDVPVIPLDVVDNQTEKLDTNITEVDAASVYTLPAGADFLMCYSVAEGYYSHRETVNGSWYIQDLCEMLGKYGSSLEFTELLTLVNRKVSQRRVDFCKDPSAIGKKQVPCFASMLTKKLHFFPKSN
Nature of the assay: inhibition of CASP6 peptide cleavage – biochemical, VEID-R110 fluorescence, cherry-pick, dose response (AID 720632).

Assay [6] can be described thus: blockers of CAL PDZ ligand groove binding – biochemical, fluorescence polarization, untagged CAL PDZ, cherry-pick, dose response (AID 602267). Type of assay: functional. (In general: Fluorescence polarisation rises when a labelled molecule tumbles more slowly, as on binding a larger partner.)
Assay [7] deals with T2, Hexokinase-1 (Homo sapiens, UniProt P19367).
T2 sequence (P19367 whole entry): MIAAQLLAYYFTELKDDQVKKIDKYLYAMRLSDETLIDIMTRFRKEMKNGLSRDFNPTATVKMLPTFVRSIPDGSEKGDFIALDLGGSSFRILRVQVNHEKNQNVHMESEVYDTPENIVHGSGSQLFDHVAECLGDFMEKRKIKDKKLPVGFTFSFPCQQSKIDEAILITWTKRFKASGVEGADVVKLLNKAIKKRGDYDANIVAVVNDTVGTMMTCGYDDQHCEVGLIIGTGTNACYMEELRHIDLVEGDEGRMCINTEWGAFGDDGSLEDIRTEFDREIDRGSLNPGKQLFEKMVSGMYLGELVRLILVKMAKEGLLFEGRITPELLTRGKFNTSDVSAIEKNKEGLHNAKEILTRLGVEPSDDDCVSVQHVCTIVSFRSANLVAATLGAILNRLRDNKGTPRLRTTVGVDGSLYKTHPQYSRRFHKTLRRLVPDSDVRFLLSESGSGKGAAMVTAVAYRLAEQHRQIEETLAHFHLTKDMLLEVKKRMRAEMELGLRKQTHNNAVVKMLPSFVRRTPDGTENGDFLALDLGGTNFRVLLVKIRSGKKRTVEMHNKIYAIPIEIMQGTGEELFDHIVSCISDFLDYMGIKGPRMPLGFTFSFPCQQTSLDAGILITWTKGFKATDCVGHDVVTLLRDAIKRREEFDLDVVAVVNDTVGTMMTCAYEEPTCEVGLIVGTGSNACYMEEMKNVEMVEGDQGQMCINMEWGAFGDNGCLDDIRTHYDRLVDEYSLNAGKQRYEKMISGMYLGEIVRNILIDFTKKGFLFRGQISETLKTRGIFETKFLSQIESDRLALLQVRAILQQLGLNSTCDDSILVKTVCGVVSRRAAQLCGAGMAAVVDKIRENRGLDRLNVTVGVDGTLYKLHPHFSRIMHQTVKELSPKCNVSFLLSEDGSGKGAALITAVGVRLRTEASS
Briefly: SAR analysis of small molecule inhibitors of hexokinase domain containing I (HKDC1) in the hexokinase 1 selectivity assay. [Related pubchem assays (depositor defined):AID493160, AID493190]. In kind it is functional.

Assay [8] has as its target Eukaryotic translation initiation factor 4E (Mus musculus, UniProt P63073). Briefly: blockers of eIF4G binding by eIF4E – biochemical, TR-FRET, dose response (AID 855).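 Note: potency for disrupting eIF4E binding to eIF4GI seen as loss of FRET.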 In kind it is functional. (In general: TR-FRET usually uses a lanthanide donor and a delayed reading to cut background.)
The test system of assay [9] is Streptococcus sp. 'group A'. Nature of the assay: Streptococcus pyogenes SK(-)GAS viability under kanamycin – luminescence, BacTiterGlo, confirmation, counter-screen for streptokinase expression inhibitor project, dose response (AID 1900). Type of assay: functional, organism-based.
Assay [10] relates to Streptococcus. Nature of the assay: GAS UMAA2166 growth inhibition – luminescence, BacTiterGlo, counter-screen for streptokinase expression inhibitor project, dose response (AID 1915).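 Note: potency for reduction of bacterial viability or growth.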 Type of assay: functional, organism-based. On the technique in general: A counterscreen serves to expose hits that act by an unwanted route or on another target.
The target of assay [11] is T3, Streptokinase A (Streptococcus pyogenes serotype M1, UniProt P10520).
T3 sequence (P10520 whole entry): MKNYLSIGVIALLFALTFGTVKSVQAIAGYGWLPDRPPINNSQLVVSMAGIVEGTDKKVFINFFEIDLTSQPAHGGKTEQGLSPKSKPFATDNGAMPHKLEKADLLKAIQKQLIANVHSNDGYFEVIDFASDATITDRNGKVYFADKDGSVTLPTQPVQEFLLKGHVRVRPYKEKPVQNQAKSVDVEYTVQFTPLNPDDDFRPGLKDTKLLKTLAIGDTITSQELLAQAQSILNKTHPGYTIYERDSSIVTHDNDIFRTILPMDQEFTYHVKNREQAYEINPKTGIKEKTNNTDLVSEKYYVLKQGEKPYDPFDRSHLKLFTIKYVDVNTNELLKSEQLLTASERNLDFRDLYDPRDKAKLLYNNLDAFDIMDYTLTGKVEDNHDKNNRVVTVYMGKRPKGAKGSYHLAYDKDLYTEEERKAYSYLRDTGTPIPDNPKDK
Briefly: viability-normalized secreted streptokinase activity reduction – plasminogen activation absorbance, OD405, dose response (AID 1914).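 Note: secreted streptokinase activity via plasminogen activation per viability signal from cell pellet.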 Type of assay: functional, Streptococcus pyogenes M1 GAS.

For assay [12], the target named is Histone-lysine N-methyltransferase NSD2 (Homo sapiens, UniProt O96028). In kind it is biochemical.
The target in assay [13] is Heat shock protein HSP 90-alpha (Homo sapiens, UniProt P07900). Briefly: Luminescence-based dose response biochemical high throughput screening assay for inhibitors of the Heat Shock Protein 90 (HSP90). [Related pubchem assays: 1831 (Summary AID.), 1846 (Confirmation screen.), 1789 (Primary screen.)].
Assay [14] concerns the target T4, C-C chemokine receptor type 6 (Homo sapiens, UniProt P51684).
T4 sequence (P51684 whole entry): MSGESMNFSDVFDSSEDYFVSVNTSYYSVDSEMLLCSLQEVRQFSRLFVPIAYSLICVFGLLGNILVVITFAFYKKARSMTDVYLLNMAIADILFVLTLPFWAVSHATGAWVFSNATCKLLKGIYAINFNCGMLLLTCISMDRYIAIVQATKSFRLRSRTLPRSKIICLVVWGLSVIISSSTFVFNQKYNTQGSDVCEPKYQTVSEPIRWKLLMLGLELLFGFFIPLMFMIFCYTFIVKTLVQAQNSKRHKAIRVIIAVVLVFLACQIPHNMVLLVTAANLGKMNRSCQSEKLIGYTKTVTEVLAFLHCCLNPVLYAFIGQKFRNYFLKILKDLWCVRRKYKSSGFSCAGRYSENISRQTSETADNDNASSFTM
Nature of the assay: antagonism of CCR6 beta-arrestin recruitment – cell-based, luminescent beta-arrestin readout, dose response (AID 504728). Type of assay: functional.

Calls of active or inactive are those of the source.

Histone-lysine N-methyltransferase NSD2, sequence (O96028 whole entry): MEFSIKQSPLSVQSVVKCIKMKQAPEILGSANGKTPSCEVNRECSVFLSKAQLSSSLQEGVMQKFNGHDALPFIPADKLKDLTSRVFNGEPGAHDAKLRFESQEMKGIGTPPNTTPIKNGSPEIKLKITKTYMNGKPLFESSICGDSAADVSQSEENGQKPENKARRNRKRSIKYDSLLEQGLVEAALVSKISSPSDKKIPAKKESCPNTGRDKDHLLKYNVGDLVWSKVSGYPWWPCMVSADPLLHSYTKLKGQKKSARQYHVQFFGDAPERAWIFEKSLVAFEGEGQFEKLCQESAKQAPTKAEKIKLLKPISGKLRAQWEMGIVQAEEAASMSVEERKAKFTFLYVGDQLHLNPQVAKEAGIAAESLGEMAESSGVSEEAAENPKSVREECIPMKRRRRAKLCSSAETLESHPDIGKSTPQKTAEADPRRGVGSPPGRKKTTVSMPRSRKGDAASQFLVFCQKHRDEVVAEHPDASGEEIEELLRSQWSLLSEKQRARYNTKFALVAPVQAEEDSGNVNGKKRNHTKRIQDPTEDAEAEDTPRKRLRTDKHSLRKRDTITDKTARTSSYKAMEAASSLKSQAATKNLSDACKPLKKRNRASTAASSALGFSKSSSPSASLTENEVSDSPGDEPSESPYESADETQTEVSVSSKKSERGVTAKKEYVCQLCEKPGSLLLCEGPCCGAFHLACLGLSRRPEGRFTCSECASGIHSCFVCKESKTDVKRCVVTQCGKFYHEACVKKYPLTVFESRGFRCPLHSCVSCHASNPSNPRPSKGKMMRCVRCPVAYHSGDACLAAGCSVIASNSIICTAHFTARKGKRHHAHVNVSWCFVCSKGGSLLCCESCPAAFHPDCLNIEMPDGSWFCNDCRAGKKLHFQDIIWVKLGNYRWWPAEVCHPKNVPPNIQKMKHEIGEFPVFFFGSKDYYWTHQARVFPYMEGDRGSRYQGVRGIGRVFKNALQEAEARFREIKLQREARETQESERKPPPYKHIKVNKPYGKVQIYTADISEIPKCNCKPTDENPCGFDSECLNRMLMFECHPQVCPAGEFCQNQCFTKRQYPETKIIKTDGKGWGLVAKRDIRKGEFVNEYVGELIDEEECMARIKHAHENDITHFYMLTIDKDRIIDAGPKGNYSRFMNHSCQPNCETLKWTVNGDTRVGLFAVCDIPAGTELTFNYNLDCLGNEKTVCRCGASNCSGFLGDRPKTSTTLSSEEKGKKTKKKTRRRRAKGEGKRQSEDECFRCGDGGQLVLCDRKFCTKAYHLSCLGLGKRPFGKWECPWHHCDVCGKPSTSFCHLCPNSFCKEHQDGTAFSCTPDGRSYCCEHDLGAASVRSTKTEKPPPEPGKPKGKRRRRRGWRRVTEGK
Eukaryotic translation initiation factor 4E, sequence (P63073 whole entry): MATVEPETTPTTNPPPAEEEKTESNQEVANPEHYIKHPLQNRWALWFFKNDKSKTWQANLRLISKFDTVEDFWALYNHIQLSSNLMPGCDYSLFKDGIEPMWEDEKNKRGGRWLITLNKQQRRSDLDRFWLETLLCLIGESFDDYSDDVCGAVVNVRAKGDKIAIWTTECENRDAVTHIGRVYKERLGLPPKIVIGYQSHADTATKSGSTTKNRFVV

Regarding `NC(=O)C1CCN(C2=C(Cl)C(=O)c3ccccc3C2=O)CC1`, the EC50 (usually the concentration at which the effect is half-maximal) in [1] is 3.29 µM (active); in [4], 2.18 µM (active). For the same molecule, the CC50 – broadly, the concentration at which the toxic effect on the cells reaches its halfway point – in [2] is 22.3 µM (active); in assay [3] it was 7.88 µM (active).
For the molecule `O=c1c2ccccc2nc(/C=C/c2cccnc2)n1Cc1ccccc1`, the figures for the AC50 in assay [5] and in assay [6] were 11.8 µM (active) and 91.1 µM (active), respectively. For the same molecule, the IC50 (as a rule, the midpoint of a concentration-inhibition curve) in assay [7] is > 80 µM (inactive); in [8], 5.77 µM (active).
`O=C(O)c1ccc(N/N=C/c2ccc(OC(=O)c3ccccc3Cl)cc2)cc1`: the values for the EC50 in assay [9], in assay [10] and in assay [11] were 2.91 µM (active), 131 µM (active) and > 150 µM (not active), respectively.
As to `COC(=O)c1ccccc1NC1=C/C(=N\S(=O)(=O)c2ccc(C(=O)O)cc2)c2ccccc2C1=O`, the AC50 (commonly the midpoint of the concentration-response curve, whichever way the signal moves) in assay [12] was 0.557 µM (active). Moreover, the results for the IC50 in assay [13] and in assay [14] were 1.26 µM (active) and > 66.6 µM (inactive), respectively.
